Results as given in patent publication US6703536B2, “Disposable absorbent article having a skin care composition containing an enzyme inhibitor” (The Procter & Gamble Company, priority 1998, dated 2004).
Square brackets hold non-standard residues; d marks the D form. Peptide text beside a SMILES is read from it. * marks the point of attachment. Sta = CC(C)C[C@H](N)[C@@H](O)CC(=O)O; Isovaleryl = CC(C)CC(=O)*

B1: Soybean trypsin inhibitor: plant-derived trypsin inhibitor (protein, UniProt P01070 25-205, looked up)
Trypsin inhibitor A: DFVLDNEGNPLENGGTYYILSDITAFGGIRAAPTGNERCPLTVVQSRNELDKGIGTIISSPYRIRFIAEGHPLSLKFDSFAVIMLCVGIPTEWSVVEDLPEGPAVKIGENKDAMDGWFRLERVSDDEFNNYKLVFCPQQAEDDKCGDIGISIDHDDGTRRLVVSKNKPLVVQFQKLDKESL

Target: protease activity in feces
Assay: General Fecal Enzymes Method (casein-resorufin cleavage)
Assay type: biochemical, infant
Conditions: fecal suspension, casein-resorufin substrate, pH 7.8, 37° C. for 60 minutes
Excerpt: Pooled infant feces (at least five different samples) are collected in a manner to keep them free of urine and contamination and mixed with water to obtain a weight by weight (w/w) mixture (e.g., 1:50 w/w). This mixture is then mixed thoroughly to obtain a homogeneous suspension by homogenization or sonication. […] (Also, to ensure complete linearity the final absorbance should never exceed 1.5 OD405 units). If the activity of the pooled infant feces is outside this range, it is not possible to accurately determine IC50 values for putative protease inhibitors. However, the range of enzyme activity may be adjusted by increasing or decreasing the dilution factor accordingly for each enzyme. If this is not possible, a different group of subjects should be used to obtain the sample pool.
The general method described above for obtaining a sample of feces suitable for use in Specific Fecal Enzyme Methods can be easily adapted by one skilled in the art to obtain appropriate samples of feces suitable for use in the General Fecal Enzymes Method listed below without undue experimentation.
To test the efficacy of protease inhibitors against the protease activity in feces, 50 μL of inhibitor and 50 μL of fecal suspension are added to a 1.5 mL microcentrifuge tube. The microcentrifuge tube is mixed by inversion and incubated at 25° C. for 45 minutes. Then, 50 μL of protease buffer (200 mM TRIS buffer containing 20 mM CaCl2, pH 7.8) is added to the microcentrifuge tube. The microcentrifuge tube is again mixed by inversion and incubated at 25° C. for 45 minutes. […] The microcentrifuge tube is again mixed by inversion and incubated at 37° C. for 60 minutes for the substrate cleavage reaction to take place. Then, 480 μL of trichloroacetic acid (5% w/v) is added to stop the reaction and precipitate any unreacted casein-resorufin. The microcentrifuge tube is mixed by inversion incubated at 37° C. for 15 minutes. […] Then, 400 μL of the supernatant is added to 600 μL of assay buffer (0.5 M TRIS, pH 8.8) in a cuvette. […] The same procedure is repeated without the putative inhibitor. […] Before the start of the reaction, A and Ai are nearly zero. […] The rates, vi and v, and the inhibitor concentration [I] are used to calculate IC50 according to the equation expressed above.

Molecule	IC50 [µM]
CC(C)C[C@H](NC(=O)[C@@H](NC(=O)N[C@@H](Cc1ccccc1)C(=O)O)[C@@H]1CCN=C(N)N1)C(=O)N[C@H](C=O)Cc1ccccc1 [Chymostatin]	64
CC(=O)N[C@@H](CC(C)C)C(=O)N[C@@H](CC(C)C)C(=O)N[C@H](C=O)CCCNC(=N)N [Leupeptin]	> 320
CC(C)CC(=O)N[C@H](C(=O)N[C@H](C(=O)N[C@@H](CC(C)C)[C@@H](O)CC(=O)N[C@@H](C)C(=O)N[C@@H](CC(C)C)[C@@H](O)CC(=O)O)C(C)C)C(C)C [Pepstatin A] (Isovaleryl-VV[Sta]A[Sta]-OH)	> 32
B1	4.9
